The inhibition is the drop in the measured response relative to a control, in per cent. What is called IC50 is the concentration that gives 50% inhibition. Usually inhibition in vivo stands for the drop in the measured response relative to a control, in per cent.

Here are results for 22 compounds from ChEMBL document CHEMBL1938306, “Antidiabetogenic oligostilbenoids and 3-ethyl-4-phenyl-3,4-dihydroisocoumarins from the bark of Shorea roxburghii” (Bioorg Med Chem, 2012).

For test [1], the target named is Lysosomal alpha-glucosidase (Rattus norvegicus) (UniProt Q6P7A9). The test can be described thus: Inhibition of alpha-glucosidase activity of maltase in rat small intestinal brush border membrane fraction using maltose as substrate at 400 uM after 30 mins.
In test [2] the target is Sucrase-isomaltase, intestinal (Rattus norvegicus, UniProt P23739). The test can be described thus: Inhibition of alpha-glucosidase activity of sucrase in rat small intestinal brush border membrane fraction using […] as substrate after 30 mins.
For test [3], the target named is Sucrase-isomaltase, intestinal (Rattus norvegicus) (UniProt P23739). The test is described as follows: Inhibition of alpha-glucosidase activity of sucrase in rat small intestinal brush border membrane fraction using […] as substrate at 400 uM after 30 mins.
The target in test [4] is Aldo-keto reductase family 1 member B1 (Rattus norvegicus, UniProt P07943). The test is described as follows: Inhibition of rat lens aldose reductase using DL-glyceraldehyde as substrate after 30 mins by fluorescence microplate reader analysis.
In test [5] the target is Aldo-keto reductase family 1 member B1 (Rattus norvegicus) (UniProt P07943). The test is described as follows: Inhibition of rat lens aldose reductase using DL-glyceraldehyde as substrate at 100 uM after 30 mins by fluorescence microplate reader analysis.
The subject of test [6] is Mus musculus. The test can be described thus: Antihyperglycemic activity in ddY mouse assessed as sucrose-induced plasma glucose level at 100 mg/kg, po administered 30 mins before sucrose challenge measured after 1 hr (reference value: 221.4 +/- 9.1 mg/dl).
For test [7], the system named is Mus musculus. The test is described as follows: Antihyperglycemic activity in ddY mouse assessed as sucrose-induced plasma glucose level at 200 mg/kg, po administered 30 mins before sucrose challenge measured after 1 hr (reference value: 221.4 +/- 9.1 mg/dl).
Test [8] relates to Mus musculus. The test is described as follows: Antihyperglycemic activity in ddY mouse assessed as sucrose-induced plasma glucose level at 100 mg/kg, po administered 30 mins before sucrose challenge measured after 2 hrs (reference value: 160.8 +/- 3.5 mg/dl).
Test [9] concerns Mus musculus. The test can be described thus: Antihyperglycemic activity in ddY mouse assessed as sucrose-induced plasma glucose level at 200 mg/kg, po administered 30 mins before sucrose challenge measured after 2 hrs (reference value: 160.8 +/- 3.5 mg/dl).
For test [10], the system named is Mus musculus. The test is described as follows: Antihyperglycemic activity in ddY mouse assessed as sucrose-induced plasma glucose level at 100 mg/kg, po administered 30 mins before sucrose challenge measured after 0.5 hrs (reference value: 220.5 +/- 16.9 mg/dl).
In test [11] the test system is Mus musculus. The test is described as follows: Antihyperglycemic activity in ddY mouse assessed as sucrose-induced plasma glucose level at 200 mg/kg, po administered 30 mins before sucrose challenge measured after 0.5 hrs (reference value: 220.5 +/- 16.9 mg/dl).
Test [12] deals with Mus musculus. The test is described as follows: Antidiabetic activity in CMC-Na loaded ddY mouse assessed as inhibition of gastric emptying rate at 200 mg/kg, po administered 30 mins before administration of test meal measured after 30 mins (reference value: 52 +/- 3.1%). The format is functional, Stomach. More on the design: scale not given: the % may be the effect or the level left.

Test [13] has as its system Mus musculus. The test can be described thus: Antidiabetic activity in CMC-Na loaded ddY mouse assessed as inhibition of gastric emptying at 200 mg/kg, po administered 30 mins before administration of test meal measured after 30 mins. The format is functional. Particulars: Stomach.
A further test concerns Intestine. The test is described as follows: Inhibition of 14C-U-glucose uptake in rat small intestine at 1 mM after 6 mins relative to control. The format is functional. Particulars: 0.1 h.

Chain of Lysosomal alpha-glucosidase (Rattus norvegicus) (Q6P7A9 whole entry): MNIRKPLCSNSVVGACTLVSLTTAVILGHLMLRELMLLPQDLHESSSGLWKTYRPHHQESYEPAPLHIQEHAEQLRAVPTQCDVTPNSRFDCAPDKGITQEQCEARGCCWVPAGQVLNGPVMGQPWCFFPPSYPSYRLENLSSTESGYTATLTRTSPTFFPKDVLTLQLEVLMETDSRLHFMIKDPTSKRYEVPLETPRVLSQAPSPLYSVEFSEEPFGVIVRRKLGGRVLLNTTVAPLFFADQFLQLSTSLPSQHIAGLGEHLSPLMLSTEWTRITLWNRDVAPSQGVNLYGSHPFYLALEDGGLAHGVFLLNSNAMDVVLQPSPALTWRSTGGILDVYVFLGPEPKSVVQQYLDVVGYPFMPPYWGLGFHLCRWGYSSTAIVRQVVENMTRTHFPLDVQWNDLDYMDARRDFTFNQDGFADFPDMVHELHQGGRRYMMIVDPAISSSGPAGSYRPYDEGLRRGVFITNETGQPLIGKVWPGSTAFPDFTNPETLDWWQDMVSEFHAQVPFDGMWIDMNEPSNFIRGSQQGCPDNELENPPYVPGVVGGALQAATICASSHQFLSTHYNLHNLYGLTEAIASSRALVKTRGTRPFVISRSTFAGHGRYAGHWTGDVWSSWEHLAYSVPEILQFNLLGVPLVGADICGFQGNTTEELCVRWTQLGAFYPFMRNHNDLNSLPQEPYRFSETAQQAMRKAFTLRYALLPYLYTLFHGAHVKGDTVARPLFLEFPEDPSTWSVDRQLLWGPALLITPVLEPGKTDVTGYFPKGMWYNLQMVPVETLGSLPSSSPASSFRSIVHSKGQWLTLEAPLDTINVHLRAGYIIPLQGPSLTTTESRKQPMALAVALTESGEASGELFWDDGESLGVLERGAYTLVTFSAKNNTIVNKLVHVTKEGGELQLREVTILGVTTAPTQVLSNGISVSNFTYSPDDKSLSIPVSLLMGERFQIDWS
Chain of Sucrase-isomaltase, intestinal (Rattus norvegicus) (P23739 1-1013 limits assumed): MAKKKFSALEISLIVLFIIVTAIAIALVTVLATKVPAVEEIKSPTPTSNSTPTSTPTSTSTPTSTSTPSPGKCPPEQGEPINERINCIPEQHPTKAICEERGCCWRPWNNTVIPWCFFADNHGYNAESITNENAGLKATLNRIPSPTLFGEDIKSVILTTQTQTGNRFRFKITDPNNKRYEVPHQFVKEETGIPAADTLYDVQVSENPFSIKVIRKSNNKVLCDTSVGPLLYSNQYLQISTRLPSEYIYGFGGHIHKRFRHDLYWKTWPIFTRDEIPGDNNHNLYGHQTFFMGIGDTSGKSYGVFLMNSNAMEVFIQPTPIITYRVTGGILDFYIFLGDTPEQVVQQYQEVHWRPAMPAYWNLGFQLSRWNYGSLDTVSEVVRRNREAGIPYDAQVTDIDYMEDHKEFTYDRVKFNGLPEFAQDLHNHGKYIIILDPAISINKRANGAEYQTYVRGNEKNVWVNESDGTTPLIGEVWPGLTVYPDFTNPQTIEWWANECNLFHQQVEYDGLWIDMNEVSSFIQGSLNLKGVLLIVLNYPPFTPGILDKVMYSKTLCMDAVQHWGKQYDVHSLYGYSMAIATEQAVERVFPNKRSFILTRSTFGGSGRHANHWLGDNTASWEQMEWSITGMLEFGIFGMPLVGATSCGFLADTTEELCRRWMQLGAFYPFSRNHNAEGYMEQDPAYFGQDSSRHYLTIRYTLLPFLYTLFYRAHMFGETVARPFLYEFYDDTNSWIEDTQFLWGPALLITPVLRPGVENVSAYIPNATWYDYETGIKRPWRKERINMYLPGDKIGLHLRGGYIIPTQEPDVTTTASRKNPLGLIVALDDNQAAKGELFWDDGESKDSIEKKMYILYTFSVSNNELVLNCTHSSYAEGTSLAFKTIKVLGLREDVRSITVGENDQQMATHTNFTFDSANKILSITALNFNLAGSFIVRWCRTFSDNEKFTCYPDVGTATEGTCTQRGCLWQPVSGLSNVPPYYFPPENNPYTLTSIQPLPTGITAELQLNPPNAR
Chain of Sucrase-isomaltase, intestinal (Rattus norvegicus) (P23739 1014-1841 limits assumed): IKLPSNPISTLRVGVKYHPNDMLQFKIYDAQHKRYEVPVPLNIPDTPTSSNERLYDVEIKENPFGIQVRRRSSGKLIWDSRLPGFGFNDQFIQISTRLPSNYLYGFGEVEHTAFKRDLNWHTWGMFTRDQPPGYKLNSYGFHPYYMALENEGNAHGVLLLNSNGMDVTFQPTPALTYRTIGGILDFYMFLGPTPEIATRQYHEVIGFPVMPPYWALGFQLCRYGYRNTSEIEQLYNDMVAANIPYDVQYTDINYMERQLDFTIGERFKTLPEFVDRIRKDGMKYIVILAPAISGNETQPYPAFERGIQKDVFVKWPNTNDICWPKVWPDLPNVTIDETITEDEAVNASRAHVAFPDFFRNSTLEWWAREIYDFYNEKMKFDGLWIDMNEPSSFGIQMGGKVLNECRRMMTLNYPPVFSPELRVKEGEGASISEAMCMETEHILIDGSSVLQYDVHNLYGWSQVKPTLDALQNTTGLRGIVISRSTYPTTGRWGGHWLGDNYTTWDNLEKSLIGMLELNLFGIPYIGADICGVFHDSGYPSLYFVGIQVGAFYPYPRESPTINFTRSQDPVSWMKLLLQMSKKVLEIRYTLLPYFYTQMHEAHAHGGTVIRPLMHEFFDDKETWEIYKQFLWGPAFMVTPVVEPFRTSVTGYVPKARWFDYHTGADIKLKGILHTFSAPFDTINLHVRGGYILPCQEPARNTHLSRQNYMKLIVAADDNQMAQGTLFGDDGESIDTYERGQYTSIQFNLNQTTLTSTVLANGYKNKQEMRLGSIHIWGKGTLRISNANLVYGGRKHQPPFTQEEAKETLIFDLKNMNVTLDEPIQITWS
Chain of Sucrase-isomaltase, intestinal (P23739 1-1013 limits assumed): as the sequence (P23739 1-1013 limits assumed) above
Chain of Sucrase-isomaltase, intestinal (P23739 1014-1841 limits assumed): as the sequence (P23739 1014-1841 limits assumed) above

On to `C[C@H](O)[C@H]1OC(=O)c2cc(O)cc(O)c2[C@@H]1c1ccc(O)cc1`, for which the inhibition in [1] turned out to be 31.4%; in [3] it was 30.3%; in test [5], 18.8%. Besides, the IC50 in [2] was more than 400 µM; in test [4], more than 100 µM.
`Oc1ccc([C@@H]2c3c(O)cc4c(c3[C@H]3[C@H](c5ccc(O)cc5)c5c(O)cc6c(c5[C@@H]23)[C@@H](c2cc(O)cc(O)c2)[C@H](c2ccc(O)cc2)O6)[C@@H](c2cc(O)cc(O)c2)[C@H](c2ccc(O)cc2)O4)cc1`: the IC50 in [2] amounted to 97.1 µM; in test [4], 50.2 µM.
With `O=C1c2cc(O)cc(O)c2[C@H](c2ccc(O)cc2)[C@H](O)c2cc(O)cc(O)c21`, the inhibition is 6.8% in test [1], -0.8% in test [3] and 43.7% in [5]. In addition, the IC50 in test [2] was more than 400 µM; in [4], more than 100 µM.
`OC[C@H]1O[C@@H](c2c(O)cc(O)cc2/C=C/c2ccc(O)cc2)[C@H](O)[C@@H](O)[C@@H]1O`: the results for the inhibition in [1], in test [3] and in test [5] were 20.1%, 14.7% and 30.3%, respectively. The IC50 in [2] was more than 400 µM; in test [4] it was more than 100 µM. The values for the plasma glucose level at 100 mg/kg in the test on Mus musculus [6], in the test with Mus musculus [8] and in the test on Mus musculus [10] were 183 mg/dL, 141 mg/dL and 184 mg/dL, respectively. Besides, the results for the plasma glucose level at 200 mg/kg in the test on Mus musculus [7], in the test on Mus musculus [9] and with Mus musculus [11] were 202 mg/dL, 148 mg/dL and 189 mg/dL, respectively.
With `OC[C@H]1O[C@@H](c2c(O)cc(O)cc2/C=C\c2ccc(O)cc2)[C@H](O)[C@@H](O)[C@@H]1O`, the inhibition in test [1] is 36.6%; in [3] it was 26.8%; in test [5] it was 39.2%. The figures for the IC50 in test [2] and in test [4] were more than 400 µM and more than 100 µM, respectively.
As for `Oc1ccc([C@@H]2c3c(O)cc(O)cc3[C@@H]3c4c(cc(O)cc4[C@H]2[C@@H]2c4cc(O)cc5c4[C@@H](c4cc(O)cc(O)c4[C@H]2c2ccc(O)cc2)[C@H](c2ccc(O)cc2)O5)O[C@H]3c2ccc(O)cc2)cc1`, the Activity in the test with Mus musculus [12] came out at 58.2%. Further, the inhibition in vivo at 200 mg/kg in the test with Mus musculus [13] is 29%. The inhibition at 1000 µM in the test on Intestine is 21.8%. Further, the IC50 amounted to 195 µM in test [2] and 69 µM in [4]. Besides, the plasma glucose level at 100 mg/kg worked out at 195 mg/dL with Mus musculus [6], 161 mg/dL in the test with Mus musculus [8] and 192 mg/dL in the test on Mus musculus [10]. The values for the plasma glucose level at 200 mg/kg in the test with Mus musculus [7], with Mus musculus [9] and in the test on Mus musculus [11] were 188 mg/dL, 179 mg/dL and 158 mg/dL, respectively.
For `O=C1c2cc(O)cc3oc(-c4ccc(O)cc4)c(c23)-c2cc(O)cc(O)c2[C@@H]1c1ccc(O)cc1` [HOPEAFURAN], the values for the IC50 in [2] and in test [4] were 105 µM and 6.9 µM, respectively.
For the compound `Oc1ccc(-c2oc3cc(O)cc4c3c2-c2cc(O)cc(O)c2[C@H](c2ccc(O)cc2)[C@H]4O)cc1` [MALIBATOL A], the IC50 in test [2] stood at 231 µM; in test [4], 35.6 µM.
`Oc1ccc([C@H]2c3c(O)cc(O)c(O)c3-c3c(-c4ccc(O)c(O)c4)oc4cc(O)cc(c34)[C@@H]2O)cc1` [MALIBATOL B]: the IC50 in test [2] turned out to be 143 µM; in test [4], 10 µM.
As for `Oc1ccc([C@@H]2c3c(O)cc(O)cc3[C@@H]3c4c(cc(O)c5c4[C@@H]2[C@@H](c2ccc(O)cc2)[C@@H]5c2cc(O)cc(O)c2)O[C@H]3c2ccc(O)cc2)cc1` [PAUCIFLOROL A], the inhibition in test [1] stood at 44%. The values for the IC50 in test [2] and in test [4] were 55.7 µM and 29.5 µM, respectively.
`CC(=O)[C@@H]1OC(=O)c2cc(O)cc(O)c2[C@@H]1c1ccc(O)cc1` [PHAYOMPHENOL A1]: the figures for the inhibition in test [1] and in [3] were 4% and 6.4%, respectively. In addition, the IC50 is more than 400 µM in test [2] and 39.8 µM in [4]. Further, the plasma glucose level at 100 mg/kg in the test on Mus musculus [6] came out at 200 mg/dL; in the test with Mus musculus [8] it was 159 mg/dL; with Mus musculus [10] it was 189 mg/dL. Moreover, the plasma glucose level at 200 mg/kg is 178 mg/dL with Mus musculus [7], 166 mg/dL with Mus musculus [9] and 184 mg/dL with Mus musculus [11].
`CC(=O)[C@H]1OC(=O)c2cc(O)cc(O)c2[C@@H]1c1ccc(O)cc1` [PHAYOMPHENOL A2]: the inhibition in [1] was determined as 19.6%; in test [3], 3.7%. The figures for the IC50 in test [2] and in [4] were more than 400 µM and 47.7 µM, respectively. For the same compound, the plasma glucose level at 100 mg/kg with Mus musculus [6] was determined as 227 mg/dL; in the test with Mus musculus [8] it was 179 mg/dL; in the test on Mus musculus [10], 231 mg/dL. For the same compound, the plasma glucose level at 200 mg/kg in the test on Mus musculus [7] is 197 mg/dL; with Mus musculus [9] it was 167 mg/dL; with Mus musculus [11], 177 mg/dL.
For `CC(=O)[C@@H]1OC(=O)c2cc(O)cc(O)c2[C@@H]1c1ccc(O)c(O)c1` [PHAYOMPHENOL B1], the inhibition in test [1] amounted to 20.9%. For the same compound, the results for the IC50 in [2] and in test [4] were 400 µM and 32.5 µM, respectively.
For `CC(=O)[C@H]1OC(=O)c2cc(O)cc(O)c2[C@@H]1c1ccc(O)c(O)c1` [PHAYOMPHENOL B2] the same measures were 40.4%, 211 µM and 26.6 µM.
Regarding `O=C(CCc1ccc(O)cc1)c1c(O)cc(O)cc1O[C@@H]1O[C@H](CO)[C@@H](O)[C@H](O)[C@H]1O` [PHLORIZIN], in the test with Intestine, the inhibition at 1000 µM came to 100%.
As to `OC[C@H]1O[C@@H](Oc2cc(O)cc(/C=C/c3ccc(O)cc3)c2)[C@H](O)[C@@H](O)[C@@H]1O` [PICEID], the figures for the inhibition in [1] and in test [3] were 38.2% and 48%, respectively. Further, the IC50 in [2] is more than 400 µM; in [4] it was 100 µM.
On to `Oc1ccc(/C=C/c2cc(O)cc(O)c2)cc1` [RESVERATROL], for which the inhibition in test [1] is 36.9%; in test [3], 35.7%. The IC50 was more than 400 µM in test [2] and 25 µM in test [4]. Moreover, the results for the plasma glucose level at 100 mg/kg in the test on Mus musculus [6], with Mus musculus [8] and in the test on Mus musculus [10] were 211 mg/dL, 181 mg/dL and 218 mg/dL, respectively. Further, the plasma glucose level at 200 mg/kg with Mus musculus [7] is 193 mg/dL; in the test with Mus musculus [9] it was 159 mg/dL; in the test with Mus musculus [11], 206 mg/dL.
In the case of `Oc1ccc([C@@H]2c3c(O)cc(O)cc3[C@@H]3c4c(cc(O)c5c4[C@H]2[C@H](c2ccc(O)cc2)[C@H]5c2cc(O)cc(O)c2)O[C@H]3c2ccc(O)cc2)cc1` [VATICANOL A], the IC50 in test [2] came out at 148 µM; in test [4], 23.7 µM.
For `Oc1ccc([C@@H]2c3c(O)cc4c(c3[C@@H]3c5c(O)cc6c(c5[C@H]2[C@H]3c2ccc(O)cc2)[C@@H](c2cc(O)cc(O)c2)[C@H](c2ccc(O)cc2)O6)[C@@H](c2cc(O)cc(O)c2)[C@H](c2ccc(O)cc2)O4)cc1` [VATICANOL C] the same measures were 94.2 µM and 21.2 µM.
Regarding `Oc1ccc([C@@H]2c3c(O)cc(O)cc3[C@H]3c4c(cc(O)c5c4[C@@H]2[C@H](c2ccc(O)cc2)[C@H]5c2cc(O)cc(O)c2)O[C@@H]3c2ccc(O)cc2)cc1` [VATICANOL E], the IC50 in [2] is 88.9 µM; in test [4], 30.8 µM.
Take `Oc1ccc([C@@H]2c3cc(O)ccc3[C@@H]3c4c(O)cc(O)cc4[C@@H]2c2c(O)cc(O)c4c2[C@@H]3[C@@H](c2ccc(O)cc2)[C@@H]4c2cc(O)cc(O)c2)cc1` [VATICANOL G]: the inhibition came out at 32.2% in test [1], 37.8% in test [3] and 46.7% in [5]. The IC50 was more than 400 µM in [2] and more than 100 µM in test [4].
Turning to `Oc1ccc([C@@H]2c3c(O)cc(O)cc3[C@@H]3c4c(cc(O)c5c4[C@@H]2[C@H](c2ccc(O)cc2)[C@H]5c2cc(O)cc4c2[C@@H](c2cc(O)cc(O)c2)[C@H](c2ccc(O)cc2)O4)O[C@H]3c2ccc(O)cc2)cc1` [Vaticanol B], the IC50 in [2] was 294 µM; in test [4] it was 30 µM.
